From EP2292587A1, “PHARMACEUTICAL COMPOSITION FOR INHIBITING THE TRANSCRIPTION FACTOR INDUCIBLE BY HYPOXIA, MODULATORS OF PATHOLOGICAL PROCESSES OF ANGIOGENESIS, ONCOGENESIS, INFLAMMATION, APOPTOSIS, AND CELLULAR THERAPY” (Fundacion De La Comunidad Valenciana Centro De …, priority 2008, dated 2009)

Key:
[1] = test system: PHD3, HIF1α and HIF2α; assay: Western blot of HIF target proteins in HeLa9XHRE-LUC cells; type: cell-based; set-up: dose or concentration left out as unconfirmed; details: hypoxic conditions, 9 hours
Description: The HeLa9XHRE/LUC cells were lysed with a hypotonic buffer (10 mM Tris-HCl, pH 7.5, 1.5 mM MgCl2, I mM KCIO, 2 mM DTT, 1 mM Pefabloc, 2 mM sodium vanadate, 4 µg/ml pepstatin, 4 µg/ml leupeptin, and 4 µg/ml aprotinin), preserved 20 minutes in ice and subsequently centrifuged for 10 minutes at 1,200 rpm, collecting the supernatant and preserving it at -20°C until its use. The quantification of the proteins was performed with colorimetric Coomassie blue method described by Bradford. A commercial system was used following the manufacturer's instructions (PIERCE Chem Co., Rockford III. USA). Bovine serum albumin (A-7906, SIGMA Chem Co., St. Louis MO, USA) was used to generate a standard curve (0-200 µg of protein). Five microliters of each sample were pipetted in a 96-well plate and […] of the Coomassie solution were added and it was maintained in darkness for 5 minutes at room temperature and the absorbance at OD 595 nm was measured in a spectrophotometer. By means of the Graph-Pad statistical program, the standard line was calculated and the values were extrapolated for each of the samples. The final values were expressed as mcg/mcl of protein. The electrophoresis of proteins of the extract was carried out in polyacrylamide gels under denaturing conditions (SDS-PAGE). A commercial mixture of proteins for low molecular mass polypeptides (Amersham) was used as a molecular size standard. […]

[2] = test system: HCT116/p53+/+; assay: clonicity assay, HCT116/p53+/+; type: cell-based; details: Homo sapiens, HCT-116; stimulated 72 hours, colonies counted after 10 days; read-out: survival IC50
Description: Clonicity assays were conducted to determine the toxicity of FM19G11 in p53-proficient (HT29 and HCT116/p53^+/+) and p53-deficient (HCT116/p53^-/-) tumor cells. Once the HT-29, HCT116/p53^+/+ and HCT116/p53^-/- cells were adhered to the culture plate, they were stimulated with increasing concentrations of FM19G11 (0.5, 1, 5, 10, 20, 50 µM) for 72 hours. After 10 days of stimulation, the number of colonies formed in the plates of treated and untreated cells was determined.
Results of the clonicity assays of HT29 human colon cancer cells, HCT116 cells treated with FM19G11 were monitored up to 10 after the treatment (Figure 28). The IC50 was determined by extrapolating the percentage with the concentration. FM19G11 was used at concentrations: 0.5, 1, 5, 10, 50, 100, 200 µM

[3] = test system: mTOR; assay: activation kinetics of mTOR signaling pathway, HCT116/p53-/-; type: cell-based, human; details: 0.5 µM
Description: Due to the crucial role of p53 as a tumor-suppressing agent, it was analyzed in HCT116 cells how FM19G11 affected the activation kinetics of proteins involved in favoring cell cycle progress, specifically the mTOR cell signaling pathway. An increase of cell progress can be due to replicative stress which generates DNA damage (Bartkova, J, Horejsi, Z, Koed, K, Kramer, A, Tort, F, Zieger, K et al., (2005) DNA damage response as a candidate anti-cancer barrier in early human tumorigenesis. Nature 434: 864-70; Bartkova, J, Rezaei, N, Liontos, M, Karakaidos, P, Kletsas, D, Issaeva, N et al., (2006) Oncogene-induced senescence is part of the tumorigenesis barrier imposed by DNA damage checkpoints. Nature 444: 633-7; Di Micco, R, Fumagalli, M, Cicalese, A, Piccinin, S, Gasparini, P, Luise, C et al., (2006) Oncogene-induced senescence is a DNA damage response triggered by DNA hyper-replication. Nature 444: 638-42), it was explored if the DDR triggered by FM19G11 was related to an increase of the cell cycle progress signal modulated by the mTOR signaling pathway. […]

Cc1ccc(C(=O)COC(=O)c2cccc(NC(=O)c3ccc([N+](=O)[O-])cc3[N+](=O)[O-])c2)cc1 [FM19G11, 2-oxo-2-(p-tolyl)ethyl 3-((2,4-dinitro)benzamido)benzoate]
expression of HIF 1α and 2α, as well as of PHD3 [1]: decrease
IC50 [2]: 3.5 µM
mTOR phosphorylation (fold change) [3]: ≤ 2
